Laboratory results from patent US12539292B2, “BRM targeting compounds and associated methods of use” (Arvinas Operations, Inc., priority 2018, dated 2026).

Target: T1, BRM (Homo sapiens, UniProt P51531)
T1 construct: In-Cell Western Screen of BRM Degradation in SW1573 Cells; endogenous in cells; host or cells: SW1573
Assay: In-cell Western screen of BRM degradation in SW1573 cells (Dmax and DC50)
Assay type: cell-based
Conditions: BRM degradation, SW1573 cells; for DC50: read-out: DC50; for Dmax: when tested at the top concentration of between 0.3 and 10 μM, read-out: Dmax (%) (% degraded)
How it was run: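 SW1573 cells were treated with compound overnight (18-20 h; final DMSO 0.1%), then fixed in 4% PFA, permeabilized with Triton X-100 and blocked. BRM was detected by in-cell Western using 800 nm anti-rabbit and 680 nm anti-mouse secondaries, and Dmax and DC50 were derived from the LI-COR Odyssey signal.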

T1 sequence (P51531 whole entry): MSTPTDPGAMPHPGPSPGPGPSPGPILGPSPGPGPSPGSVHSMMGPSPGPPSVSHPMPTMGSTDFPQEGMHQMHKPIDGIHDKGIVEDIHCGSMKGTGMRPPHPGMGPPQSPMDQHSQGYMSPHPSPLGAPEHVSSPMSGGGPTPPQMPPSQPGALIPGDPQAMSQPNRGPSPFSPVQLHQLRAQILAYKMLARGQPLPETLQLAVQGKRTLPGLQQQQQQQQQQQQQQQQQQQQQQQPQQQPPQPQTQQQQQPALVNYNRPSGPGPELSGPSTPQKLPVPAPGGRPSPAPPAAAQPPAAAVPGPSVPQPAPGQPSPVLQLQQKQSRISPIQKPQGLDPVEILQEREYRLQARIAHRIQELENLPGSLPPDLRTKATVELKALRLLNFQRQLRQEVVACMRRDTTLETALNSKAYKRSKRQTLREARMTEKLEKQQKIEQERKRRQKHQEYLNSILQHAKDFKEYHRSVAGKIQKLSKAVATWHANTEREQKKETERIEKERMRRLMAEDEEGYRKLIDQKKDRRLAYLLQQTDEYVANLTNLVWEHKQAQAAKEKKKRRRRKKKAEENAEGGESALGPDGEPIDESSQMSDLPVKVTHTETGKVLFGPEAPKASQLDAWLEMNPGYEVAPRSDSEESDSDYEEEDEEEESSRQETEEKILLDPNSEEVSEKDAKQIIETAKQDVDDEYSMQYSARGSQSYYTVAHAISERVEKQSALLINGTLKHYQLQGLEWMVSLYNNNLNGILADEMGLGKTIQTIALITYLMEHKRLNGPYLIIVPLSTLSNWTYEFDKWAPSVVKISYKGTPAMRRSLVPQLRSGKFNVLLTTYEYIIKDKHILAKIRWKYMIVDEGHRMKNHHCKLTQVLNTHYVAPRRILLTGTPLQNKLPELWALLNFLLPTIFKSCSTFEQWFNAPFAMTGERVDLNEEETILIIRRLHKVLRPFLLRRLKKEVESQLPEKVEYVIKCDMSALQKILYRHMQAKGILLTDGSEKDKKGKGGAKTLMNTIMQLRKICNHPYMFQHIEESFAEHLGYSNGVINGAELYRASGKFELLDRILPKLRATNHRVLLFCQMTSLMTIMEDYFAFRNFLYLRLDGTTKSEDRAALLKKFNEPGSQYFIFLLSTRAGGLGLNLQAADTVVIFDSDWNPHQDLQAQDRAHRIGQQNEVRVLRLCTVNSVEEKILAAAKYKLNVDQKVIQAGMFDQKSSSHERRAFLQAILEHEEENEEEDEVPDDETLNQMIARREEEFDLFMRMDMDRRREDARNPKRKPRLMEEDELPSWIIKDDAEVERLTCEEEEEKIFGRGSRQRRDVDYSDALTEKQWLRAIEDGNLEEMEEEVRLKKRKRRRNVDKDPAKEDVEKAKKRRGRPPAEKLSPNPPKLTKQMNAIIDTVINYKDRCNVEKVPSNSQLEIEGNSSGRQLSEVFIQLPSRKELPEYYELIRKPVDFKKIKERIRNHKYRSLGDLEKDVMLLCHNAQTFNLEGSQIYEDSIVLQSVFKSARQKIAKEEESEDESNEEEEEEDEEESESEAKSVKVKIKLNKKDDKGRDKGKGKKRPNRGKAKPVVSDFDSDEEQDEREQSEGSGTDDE

Structure (SMILES)	DC50	Dmax
Cc1ncsc1-c1ccc(CNC(=O)[C@@H]2C[C@@H](O)CN2C(=O)[C@H](C(C)C)N2Cc3ccccc3C2=O)c(OCCOCCOCCOCCOCCn2cc(-c3cc(-c4ccccc4O)nnc3N)cn2)c1 [compound 13, (2S,4R)-N-(2-((14-(4-(3-amino-6-(2-hydroxyphenyl)pyridazin-4-yl)-1H-pyrazol-1-yl)-3,6,9,12-tetraoxatetradecyl)oxy)-4-(4-methylthiazol-5-yl)benzyl)-4-hydroxy-1-((S)-3-methyl-2-(1-oxoisoindolin-2-yl)butanoyl)pyrrolidine-2-carboxamide]	> 30 nM	> 75%
Cc1ncsc1-c1ccc(CNC(=O)[C@@H]2C[C@@H](O)CN2C(=O)[C@H](c2cc(OCCOCCOCCn3cc(-c4cc(-c5ccccc5O)nnc4N)cn3)no2)C(C)C)cc1 [compound 14, (2S,4R)-1-[(2S)-2-(3-[2-[2-(2-[4-[3-amino-6-(2-hydroxyphenyl)pyridazin-4-yl]-1H-pyrazol-1-yl]ethoxy)ethoxy]ethoxy]-1,2-oxazol-5-yl)-3-methylbutanoyl]-4-hydroxy-N-[[4-(4-methyl-1,3-thiazol-5-yl)phenyl]methyl]pyrrolidine-2-carboxamide]		< 50%
Cc1ncsc1-c1ccc(CNC(=O)[C@@H]2C[C@@H](O)CN2C(=O)[C@@H](c2cc(OCCOCCOCCn3cc(-c4cc(-c5ccccc5O)nnc4N)cn3)no2)C(C)C)cc1 [compound 15, (2S,4R)-1-[(2R)-2-(3-[2-[2-(2-[4-[3-amino-6-(2-hydroxyphenyl)pyridazin-4-yl]-1H-pyrazol-1-yl]ethoxy)ethoxy]ethoxy]-1,2-oxazol-5-yl)-3-methylbutanoyl]-4-hydroxy-N-[[4-(4-methyl-1,3-thiazol-5-yl)phenyl]methyl]pyrrolidine-2-carboxamide]	10 to 30 nM	> 75%
Cc1ncsc1-c1ccc(CNC(=O)[C@@H]2C[C@@H](O)CN2C(=O)[C@H](c2cc(OCCOCCOCCOCCn3cc(-c4cc(-c5ccccc5O)nnc4N)cn3)no2)C(C)C)cc1 [compound 16, (2S,4R)-1-((S)-2-(3-(2-(2-(2-(2-(4-(3-amino-6-(2-hydroxyphenyl)pyridazin-4-yl)-1H-pyrazol-1-yl)ethoxy)ethoxy)ethoxy)ethoxy)isoxazol-5-yl)-3-methylbutanoyl)-4-hydroxy-N-(4-(4-methylthiazol-5-yl)benzyl)pyrrolidine-2-carboxamide]	> 30 nM	50 to 75%
Cc1ncsc1-c1ccc(CNC(=O)[C@@H]2C[C@@H](O)CN2C(=O)[C@@H](c2cc(OCCOCCOCCOCCn3cc(-c4cc(-c5ccccc5O)nnc4N)cn3)no2)C(C)C)cc1 [compound 17, (2S,4R)-1-((R)-2-(3-(2-(2-(2-(2-(4-(3-amino-6-(2-hydroxyphenyl)pyridazin-4-yl)-1H-pyrazol-1-yl)ethoxy)ethoxy)ethoxy)ethoxy)isoxazol-5-yl)-3-methylbutanoyl)-4-hydroxy-N-(4-(4-methylthiazol-5-yl)benzyl)pyrrolidine-2-carboxamide]	2.5 to 10 nM	> 75%
Cc1ncsc1-c1ccc(CNC(=O)[C@@H]2C[C@@H](O)CN2C(=O)[C@H](c2cc(OCCOCCOCCOCCOCCn3cc(-c4cc(-c5ccccc5O)nnc4N)cn3)no2)C(C)C)cc1 [compound 18, (2S,4R)-1-[(2S)-2-[3-[(14-[4-[3-amino-6-(2-hydroxyphenyl)pyridazin-4-yl]-1H-pyrazol-1-yl]-3,6,9,12-tetraoxatetradecan-1-yl)oxy]-1,2-oxazol-5-yl]-3-methylbutanoyl]-4-hydroxy-N-[[4-(4-methyl-1,3-thiazol-5-yl)phenyl]methyl]pyrrolidine-2-carboxamide]	> 30 nM	50 to 75%
Cc1ncsc1-c1ccc(CNC(=O)[C@@H]2C[C@@H](O)CN2C(=O)[C@@H](c2cc(OCCOCCOCCOCCOCCn3cc(-c4cc(-c5ccccc5O)nnc4N)cn3)no2)C(C)C)cc1 [compound 19, (2S,4R)-1-[(2R)-2-[3-[(14-[4-[3-amino-6-(2-hydroxyphenyl)pyridazin-4-yl]-1H-pyrazol-1-yl]-3,6,9,12-tetraoxatetradecan-1-yl)oxy]-1,2-oxazol-5-yl]-3-methylbutanoyl]-4-hydroxy-N-[[4-(4-methyl-1,3-thiazol-5-yl)phenyl]methyl]pyrrolidine-2-carboxamide]	10 to 30 nM	> 75%
Cc1ncsc1-c1ccc(CNC(=O)[C@@H]2C[C@@H](O)CN2C(=O)[C@H](C(C)C)N2Cc3ccccc3C2=O)c(OCCOCCOCCOCCOCCOCCn2cc(-c3cc(-c4ccccc4O)nnc3N)cn2)c1 [compound 20, (2S,4R)-N-(2-((17-(4-(3-amino-6-(2-hydroxyphenyl)pyridazin-4-yl)-1H-pyrazol-1-yl)-3,6,9,12,15-pentaoxaheptadecyl)oxy)-4-(4-methylthiazol-5-yl)benzyl)-4-hydroxy-1-((S)-3-methyl-2-(1-oxoisoindolin-2-yl)butanoyl)pyrrolidine-2-carboxamide]	> 30 nM	50 to 75%
Cc1ncsc1-c1ccc(CNC(=O)[C@@H]2C[C@@H](O)CN2C(=O)[C@H](C(C)C)N2Cc3ccccc3C2=O)c(OCCOCCOCCn2cc(-c3cc(-c4ccccc4O)nnc3N)cn2)c1 [compound 21, (2S,4R)-N-(2-(2-(2-(2-(4-(3-amino-6-(2-hydroxyphenyl)pyridazin-4-yl)-1H-pyrazol-1-yl)ethoxy)ethoxy)ethoxy)-4-(4-methylthiazol-5-yl)benzyl)-4-hydroxy-1-((S)-3-methyl-2-(1-oxoisoindolin-2-yl)butanoyl)pyrrolidine-2-carboxamide]		< 50%
Cc1ncsc1-c1ccc(CNC(=O)[C@@H]2C[C@@H](O)CN2C(=O)C(c2cc(CCCOCCOCCn3cc(-c4cc(-c5ccccc5O)nnc4N)cn3)no2)C(C)C)cc1 (stereo partly drawn) [compound 22, (2S,4R)-1-(2-(3-(3-(2-(2-(4-(3-amino-6-(2-hydroxyphenyl)pyridazin-4-yl)-1H-pyrazol-1-yl)ethoxy)ethoxy)propyl)isoxazol-5-yl)-3-methylbutanoyl)-4-hydroxy-N-(4-(4-methylthiazol-5-yl)benzyl)pyrrolidine-2-carboxamide]	> 30 nM	> 75%
Cc1ncsc1-c1ccc(CNC(=O)[C@@H]2C[C@@H](O)CN2C(=O)[C@H](c2cc(CCCOCCOCCOCCn3cc(-c4cc(-c5ccccc5O)nnc4N)cn3)no2)C(C)C)cc1 [compound 23, (2S,4R)-1-[(2S)-2-[3-(3-[2-[2-(2-[4-[3-amino-6-(2-hydroxyphenyl)pyridazin-4-yl]-1H-pyrazol-1-yl]ethoxy)ethoxy]ethoxy]propyl)-1,2-oxazol-5-yl]-3-methylbutanoyl]-4-hydroxy-N-[[4-(4-methyl-1,3-thiazol-5-yl)phenyl]methyl]pyrrolidine-2-carboxamide]	> 30 nM	> 75%
Cc1ncsc1-c1ccc(CNC(=O)[C@@H]2C[C@@H](O)CN2C(=O)[C@@H](c2cc(CCCOCCOCCOCCn3cc(-c4cc(-c5ccccc5O)nnc4N)cn3)no2)C(C)C)cc1 [compound 24, (2S,4R)-1-[(2R)-2-[3-(3-[2-[2-(2-[4-[3-amino-6-(2-hydroxyphenyl)pyridazin-4-yl]-1H-pyrazol-1-yl]ethoxy)ethoxy]ethoxy]propyl)-1,2-oxazol-5-yl]-3-methylbutanoyl]-4-hydroxy-N-[[4-(4-methyl-1,3-thiazol-5-yl)phenyl]methyl]pyrrolidine-2-carboxamide]	2.5 to 10 nM	> 75%
Cc1ncsc1-c1ccc(CNC(=O)[C@@H]2C[C@@H](O)CN2C(=O)[C@H](c2cc(CCCOCCOCCOCCOCCn3cc(-c4cc(-c5ccccc5O)nnc4N)cn3)no2)C(C)C)cc1 [compound 25]	> 30 nM	> 75%
Cc1ncsc1-c1ccc(CNC(=O)[C@@H]2C[C@@H](O)CN2C(=O)[C@@H](c2cc(CCCOCCOCCOCCOCCn3cc(-c4cc(-c5ccccc5O)nnc4N)cn3)no2)C(C)C)cc1 [compound 26, (2S,4R)-1-[(2R)-2-[3-(1-[4-[3-amino-6-(2-hydroxyphenyl)pyridazin-4-yl]-1H-pyrazol-1-yl]-3,6,9,12-tetraoxapentadecan-15-yl)-1,2-oxazol-5-yl]-3-methylbutanoyl]-4-hydroxy-N-[[4-(4-methyl-1,3-thiazol-5-yl)phenyl]methyl]pyrrolidine-2-carboxamide]	10 to 30 nM	> 75%
Cc1ncsc1-c1ccc(CNC(=O)[C@@H]2C[C@@H](O)CN2C(=O)[C@H](c2cc(OCCOCCOCCOc3cc(N4C5CCC4CN(c4cc(-c6ccccc6O)nnc4N)C5)ccn3)no2)C(C)C)cc1 [compound 27, (2S,4R)-1-[(2S)-2-[3-[2-(2-[2-[(4-[3-[3-amino-6-(2-hydroxyphenyl)pyridazin-4-yl]-3,8-diazabicyclo[3.2.1]octan-8-yl]pyridin-2-yl)oxy]ethoxy]ethoxy)ethoxy]-1,2-oxazol-5-yl]-3-methylbutanoyl]-4-hydroxy-N-[[4-(4-methyl-1,3-thiazol-5-yl)phenyl]methyl]pyrrolidine-2-carboxamide]	> 30 nM	> 75%
Cc1ncsc1-c1ccc(CNC(=O)[C@@H]2C[C@@H](O)CN2C(=O)[C@@H](c2cc(OCCOCCOCCOc3cc(N4C5CCC4CN(c4cc(-c6ccccc6O)nnc4N)C5)ccn3)no2)C(C)C)cc1 [compound 28, (2S,4R)-1-[(2R)-2-[3-[2-(2-[2-[(4-[3-[3-amino-6-(2-hydroxyphenyl)pyridazin-4-yl]-3,8-diazabicyclo[3.2.1]octan-8-yl]pyridin-2-yl)oxy]ethoxy]ethoxy)ethoxy]-1,2-oxazol-5-yl]-3-methylbutanoyl]-4-hydroxy-N-[[4-(4-methyl-1,3-thiazol-5-yl)phenyl]methyl]pyrrolidine-2-carboxamide]	< 2.5 nM	> 75%
